EC50 data for 46 molecules are collected here from patent publication US20240368096A1 (Enanta Pharmaceuticals, Inc., priority 2022, published 2024).

The subject of the test is HBV. The test can be described thus: HBV infection in HepG2-NTCP cells (HBeAg AlphaLISA in supernatants). In kind it is cell-based. To be noted: Hepatitis B virus, 192 h; HBV infection of HepG2-NTCP cells; HBeAg in supernatants at day 8 post infection; read-out: Cellular EC50. In outline:
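Readout was day-8 supernatant HBeAg by AlphaLISA, with EC50 set against DMSO controls and binned A<0.1 μM, B 0.1-1 μM, C>1 μM. Compounds were added 2 h before HBV (2000 GE/cell, 4% PEG, 0.5% DMSO) to HepG2-NTCP A3 cells; from day 1 medium held 2.5% DMSO.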

As usually defined, the EC50 is the concentration giving half of the maximal effect. Take `CN1[C@H](C2CCCCC2)CN(c2cncc(C(F)(F)F)c2)c2cc(Cl)c(-c3ccc(F)c(C(=O)O)c3)cc2S1(=O)=O` [Example 282]: the EC50 fell in the range of 0.1 to 1 µM.
On to `CN1[C@H](C2CCCCC2)CN(c2ccc(C(F)(F)F)cc2F)c2cc(Cl)c(-c3ccc(F)c(C(=O)O)c3)cc2S1(=O)=O` [Example 302], for which the EC50 is 0.1 to 1 µM.
In the case of `CC(C)OCCOC(=O)Nc1cc(-c2cc3c(cc2Cl)N(c2ccccc2)C[C@@H](C2CCCCC2)N(C)S3(=O)=O)sc1C(=O)O` [Example 257] it was < 0.1 µM; in that of `CN1[C@H](C2CCCCC2)CN(c2ccccc2)c2cc(Cl)c(-c3cc(C(=O)O)ncn3)cc2S1(=O)=O` [Example 140, (R)-6-(7-chloro-3-cyclohexyl-2-methyl-1,1-dioxido-5-phenyl-2,3,4,5-tetrahydrobenzo[f][1,2,5]thiadiazepin-8-yl)pyrimidine-4-carboxylic acid], 0.1 to 1 µM; in that of `CC(Oc1cc2c(cc1-c1cc(F)c(C(=O)O)s1)S(=O)(=O)N(C)[C@H](C1CCCCC1)CN2c1ccccc1)c1nccs1` (stereo partly shown) [Example 502], 0.1 to 1 µM.
Regarding `CSc1cc2c(cc1-c1cc(C)c(C(=O)O)s1)S(=O)(=O)N(C)[C@H](C1CCCCC1)CN2c1ccccc1` [Example 562, (R)-5-(3-cyclohexyl-2-methyl-7-(methylthio)-1,1-dioxido-5-phenyl-2,3,4,5-tetrahydrobenzo[f][1,2,5]thiadiazepin-8-yl)-3-methylthiophene-2-carboxylic acid], the EC50 is < 0.1 µM.
The result for `Cc1cc(F)cc(Oc2cc3c(cc2-c2ccc(F)c(C(=O)O)c2)S(=O)(=O)N(C)[C@H](C2CCCCC2)CN3c2ccccc2)c1` [Example 412] reads < 0.1 µM; that for `CCCC[C@@H]1CN(c2ccccc2)c2cc(-n3cnc4ccccc43)c(-c3ccc(F)c(C(=O)O)c3)cc2S(=O)(=O)N1C` [Example 527], 0.1 to 1 µM.
Consider `CN1[C@H](C2CCCCC2)CNc2cc(C3CCN(C(=O)OC(C)(C)C)CC3)c(-c3ccc(F)c(C(=O)O)c3)cc2S1(=O)=O` [Example 584, (R)-5-(7-(1-(tert-butoxycarbonyl)piperidin-4-yl)-3-cyclohexyl-2-methyl-1,1-dioxido-2,3,4,5-tetrahydrobenzo[f][1,2,5]thiadiazepin-8-yl)-2-fluorobenzoic acid], for which the 50% effective concentration (EC50) is 0.1 to 1 µM.
Take `CC(C)C[C@@H]1CN(c2ccccc2)c2cc(N3CCCc4ccccc43)c(-c3ccc(Cl)c(C(=O)O)c3)cc2S(=O)(=O)N1C` [Example 557]: the concentration giving a half-maximal response (EC50) lay in the range of 0.1 to 1 µM.
As to `CC(C)C[C@@H]1CN(c2ccccc2)c2cc(Oc3ccccc3F)c(-c3ccc(Cl)c(C(=O)O)c3)cc2S(=O)(=O)N1C` [Example 424], the EC50 was < 0.1 µM.
On to `CC(C)C[C@@H]1CN([C@H]2CCOC2)c2cc(Oc3ccccc3F)c(-c3ccc(F)c(C(=O)O)c3)cc2S(=O)(=O)N1C` [Example 474], for which the EC50 fell in the range of 0.1 to 1 µM.
With `CN1[C@H](C2CCCCC2)CN(c2ccccc2)c2cc(OC[C@@H]3CCCN(C(=O)OC(C)(C)C)C3)c(-c3ccc(F)c(C(=O)O)c3)cc2S1(=O)=O` [Example 369], the 50% effective concentration (EC50) was 0.1 to 1 µM.
The result for `O=C(O)c1cccc(-c2cc3c(cc2F)N(c2ccccc2)CC2CC4(CC4)CN2S3(=O)=O)c1` (stereo not shown) [Example 5] reads > 1 µM; that for `CN1[C@H](C2CCCCC2)CN(c2ccccc2)c2cc(C3CC3)c(-c3cc(F)c(F)c(C(=O)O)c3)cc2S1(=O)=O` [Example 583, (R)-5-(3-cyclohexyl-7-cyclopropyl-2-methyl-1,1-dioxido-5-phenyl-2,3,4,5-tetrahydrobenzo[f][1,2,5]thiadiazepin-8-yl)-2,3-difluorobenzoic acid], 0.1 to 1 µM; that for `Cc1cncc(N2C[C@@H](C3CCCCC3)N(C)S(=O)(=O)c3cc(-c4ccc(F)c(C(=O)O)c4)c(Cl)cc32)c1` [Example 281], < 0.1 µM.
In the case of `CC(C)C[C@@H]1CN(C(C)C)c2cc(Nc3ccccc3F)c(-c3ccc(F)c(C(=O)O)c3)cc2S(=O)(=O)N1C` [Example 561] it was 0.1 to 1 µM; in that of `CN1[C@@H](CC2CC2)CN(c2ccccc2)c2cc(Cl)c(-c3ccc(F)c(C(=O)O)c3)cc2S1(=O)=O` [Example 42], > 1 µM.
On to `CO[C@H]1C[C@@H](Oc2cc3c(cc2-c2ccc(F)c(C(=O)O)c2)S(=O)(=O)N(C)[C@H](C2CCCCC2)CN3c2ccccc2)C1` [Example 379], for which the EC50 fell in the range of 0.1 to 1 µM.
With `CN1[C@H](C2CCCCC2)CN(c2ccccc2)c2cc(Oc3cccnc3)c(-c3ccc(F)c(C(=O)O)c3)cc2S1(=O)=O` [Example 415], the concentration giving a half-maximal response (EC50) fell in the range of 0.1 to 1 µM.
The result for `CN1[C@H](C2CCCCC2)CN(c2ccccc2)c2cc(C3CCOCC3)c(-c3ccc(F)c(C(=O)O)c3)cc2S1(=O)=O` [Example 591] reads 0.1 to 1 µM; that for `CN1[C@H](C2CCCCC2)CN(c2ccccc2)c2cc(Cl)c(-c3cc(NC(=O)OCC(C)(F)F)c(C(=O)O)s3)cc2S1(=O)=O` [Example 244], < 0.1 µM; that for `CN1[C@H](C2CCCCC2)CN(c2ccccc2)c2cc(OCc3cscc3F)c(-c3cc(F)c(C(=O)O)s3)cc2S1(=O)=O` [Example 488], < 0.1 µM.
The result for `CC(C)CC1CN(C2CCC2)c2cc(Cl)c(-c3cccc(C(=O)O)c3)cc2S(=O)(=O)N1C` (stereo not shown) [Example 328] reads 0.1 to 1 µM; that for `CN1[C@H](CO)CN(c2ccccc2)c2cc(Cl)c(-c3ccc(F)c(C(=O)O)c3)cc2S1(=O)=O` [Example 98, (S)-5-(7-chloro-3-(hydroxymethyl)-2-methyl-1,1-dioxido-5-phenyl-2,3,4,5-tetrahydrobenzo[f][1,2,5]thiadiazepin-8-yl)-2-fluorobenzoic acid], > 1 µM; that for `CN1C[C@@H](C2CCCCC2)N(C)S(=O)(=O)c2cc(-c3ccc(F)c(C(=O)O)c3)c(Cl)cc21` [Example 582, (R)-5-(7-chloro-3-cyclohexyl-2,5-dimethyl-1,1-dioxido-2,3,4,5-tetrahydrobenzo[f][1,2,5]thiadiazepin-8-yl)-2-fluorobenzoic acid], 0.1 to 1 µM.
The result for `CN1[C@H](C2CCCCC2)CN(c2cc(F)cc(F)c2)c2cc(Cl)c(-c3ccc(F)c(C(=O)O)c3)cc2S1(=O)=O` [Example 297] reads < 0.1 µM; that for `COCCOc1cccc(N2C[C@@H](C3CCCCC3)N(C)S(=O)(=O)c3cc(-c4ccc(F)c(C(=O)O)c4)c(Cl)cc32)c1` [Example 312], < 0.1 µM.
Take `CN1[C@H](C2CCCCC2)CN(c2ccccc2)c2cc(Cl)c(-c3ccc4c(c3)C(=O)NC4=O)cc2S1(=O)=O` [Example 197]: the EC50 is > 1 µM.
Consider `CCOc1ccc(N2C[C@@H](C3CCCCC3)N(C)S(=O)(=O)c3cc(-c4ccc(F)c(C(=O)O)c4)c(Cl)cc32)cc1` [Example 309], for which the EC50 lay in the range of 0.1 to 1 µM.
The result for `COCCOC(=O)Nc1ccc(-c2cc3c(cc2OCCOC)N(c2ccccc2)C[C@@H](C2CCCCC2)N(C)S3(=O)=O)cc1C(=O)O` [Example 479, (R)-5-(3-cyclohexyl-7-(2-methoxyethoxy)-2-methyl-1,1-dioxido-5-phenyl-2,3,4,5-tetrahydrobenzo[f][1,2,5]thiadiazepin-8-yl)-2-(((2-methoxyethoxy)carbonyl)amino)benzoic acid] reads < 0.1 µM; that for `CC(C)C[C@@H]1CN(c2ccccc2)c2cc(OC(C)(C)C(F)(F)F)c(-c3ccc(Cl)c(C(=O)O)c3)cc2S(=O)(=O)N1C` [Example 452], 0.1 to 1 µM; that for `CC(C)C[C@@H]1CN(c2ccccc2)c2cc(C3=CCC(C)(C)CC3)c(-c3ccc(C4=CCC(C)(C)CC4)c(C(=O)O)c3)cc2S(=O)(=O)N1C` [Example 218], 0.1 to 1 µM.
In the case of `CC(C)C[C@@H]1CN(c2ccccc2)c2cc(-c3ccccc3F)c(-c3ccc(F)c(C(=O)O)c3)cc2S(=O)(=O)N1C` [Example 576] it was < 0.1 µM.
The result for `CN1[C@H](C2CCCCC2)CN(c2ccccc2)c2cc(O[C@H]3C[C@@H](F)C3)c(-c3ccc(F)c(C(=O)O)c3)cc2S1(=O)=O` [Example 380] reads < 0.1 µM; that for `CN1[C@H](C2CCCCC2)CN(c2ccc3c(c2)OC(F)(F)O3)c2cc(Cl)c(-c3ccc(F)c(C(=O)O)c3)cc2S1(=O)=O` [Example 314], < 0.1 µM; that for `CN1[C@H](C2CC(F)(F)C2)CN(c2ccccc2)c2cc(Cl)c(-c3cc(F)c(F)c(C(=O)O)c3)cc2S1(=O)=O` [Example 31], 0.1 to 1 µM.
Regarding `CN1[C@H](CC2CCCCC2)CN(c2ccccc2)c2cc(Cl)c(-c3ccc(F)c(C(=O)O)c3)cc2S1(=O)=O` [Example 52], the EC50 was 0.1 to 1 µM.
With `CN1[C@H](C2CCCCC2)CN(c2ccccc2)c2cc(OCC3CN(C(=O)OC(C)(C)C)C3)c(-c3cc(F)c(C(=O)O)s3)cc2S1(=O)=O` [Example 509], the EC50 was < 0.1 µM.
In the case of `CC(C)C[C@@H]1CN(CC(C)C)c2cc(Oc3ccc(F)cc3)c(-c3ccc(F)c(C(=O)O)c3)cc2S(=O)(=O)N1C` [Example 475, (R)-2-fluoro-5-(7-(4-fluorophenoxy)-3,5-diisobutyl-2-methyl-1,1-dioxido-2,3,4,5-tetrahydrobenzo[f][1,2,5]thiadiazepin-8-yl)benzoic acid] it was 0.1 to 1 µM.
In the case of `CC(C)C[C@@H]1CN(c2ccccc2)c2cc(OCCc3ccoc3)c(-c3ccc(F)c(C(=O)O)c3)cc2S(=O)(=O)N1C` [Example 461] it was < 0.1 µM; in that of `CSc1cc2c(cc1-c1cccc(C(=O)O)c1)S(=O)(=O)N1C[C@@H](C(F)(F)F)C[C@H]1CN2c1ccccc1` [Example 24], > 1 µM.
Consider `Cc1cnc(COc2cc3c(cc2-c2ccc(F)c(C(=O)O)c2)S(=O)(=O)N(C)[C@H](C2CCCCC2)CN3c2ccccc2)s1` [Example 342], for which the half-maximal effective concentration (EC50) is < 0.1 µM.
The result for `CC(C)OC(=O)Nc1cc(-c2cc3c(cc2Cl)N(c2ccccc2)C[C@@H](C2CCCCC2)N(C)S3(=O)=O)sc1C(=O)O` [Example 248] reads < 0.1 µM; that for `CC(=O)NS(=O)(=O)c1cccc(-c2cc3c(cc2Cl)N(c2ccccc2)C[C@@H](C2CCC2)N(C)S3(=O)=O)c1` [Example 228], 0.1 to 1 µM; that for `CN1[C@H](C2CCCCC2)CN(c2ccccc2)c2cc(Oc3ccncc3)c(-c3ccc(F)c(C(=O)O)c3)cc2S1(=O)=O` [Example 416], > 1 µM.
